We go through 12 compounds from patent US20260022142A1, “MACROCYCLIC IMMUNOMODULATORS” (Bristol-Myers Squibb Company, priority 2022, published 2026).

Bridge positions count the residues as written; N and C are the ends. Square brackets hold non-standard residues; d marks the D form. Peptide text beside a SMILES is read from it. * marks the point of attachment. ξ: configuration not given here. Phe(4-CONH2) = NC(=O)c1ccc(C[C@H](N)C(=O)O)cc1; Phe(4-COOH) = N[C@@H](Cc1ccc(C(=O)O)cc1)C(=O)O; Bip = N[C@@H](Cc1ccc(-c2ccccc2)cc1)C(=O)O; Ala(2-furyl) = N[C@@H](Cc1ccco1)C(=O)O; Phe(3-Me) = Cc1cccc(C[C@H](N)C(=O)O)c1; Val(3-OH) = CC(C)(O)[C@H](N)C(=O)O; 4Pal = N[C@@H](Cc1ccncc1)C(=O)O; Cha = N[C@@H](CC1CCCCC1)C(=O)O; Thr(3ξ) = CC(O)[C@H](N)C(=O)O; Carboxymethyl = O=C(O)C*; Orn = NCCC[C@H](N)C(=O)O; Aun = NCCCCCCCCCCC(=O)O; Dab = NCC[C@H](N)C(=O)O

In the experiment the target is T1, PD-1/PD-L1 interaction (PE-labeled human PD-L1-Ig binding to Jurkat cell line over-expressing human PD-1) (Homo sapiens, UniProt Q15116).
T1 construct: expressed in transfected cells; host or cells: Jurkat
T1 sequence (Q15116 25-288): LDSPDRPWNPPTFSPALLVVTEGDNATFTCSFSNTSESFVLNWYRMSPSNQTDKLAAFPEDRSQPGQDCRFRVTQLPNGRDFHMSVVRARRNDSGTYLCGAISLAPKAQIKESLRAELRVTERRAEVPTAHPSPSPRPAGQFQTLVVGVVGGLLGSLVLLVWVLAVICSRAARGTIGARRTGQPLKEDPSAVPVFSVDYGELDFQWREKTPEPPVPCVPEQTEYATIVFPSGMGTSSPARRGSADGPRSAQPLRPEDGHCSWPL
As to the kind of experiment: Jurkat-PD-1 Cell Binding High-Content Screening Assay (CBA). Type of experiment: cell-based. The following applies: Jurkat cell line over-expressing human PD-1; PE-labeled PD-L1-Ig 20 nM final; read-out: Jurkat hPD1-PDL1 IC50. The method, boiled down: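 Binding of fluorescent PD-L1-Ig (phycoerythrin on Ig tag, 20 nM final, 1 h) measured by high-content imaging of fixed, Hoechst-counterstained Jurkat-hPD-1 cells. Compound added 2 h at 37° C beforehand, in DMEM with 10% fetal calf serum.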
With `Cc1cccc(C[C@@H]2NC(=O)[C@H](CC(=O)O)NC(=O)[C@H](Cc3ccc(OCC(=O)O)cc3)NC(=O)[C@H](Cc3ccncc3)NC(=O)CSC[C@@H](C(=O)N[C@@H](CCN)C(=O)NCCCCCCCCCCC(=O)O)NC(=O)[C@H](CO)NC(=O)[C@H](C(C)(C)O)NC(=O)[C@H](CC3CCCCC3)NC(=O)[C@H](CCN)NC(=O)[C@@H](CC(C)C)NC(=O)[C@H](CCCN)NC(=O)[C@H](Cc3ccc(C(=O)O)cc3)NC(=O)[C@H](Cc3ccc(-c4ccccc4)cc3)NC(=O)[C@H](Cc3ccc(C(=O)O)cc3)NC2=O)c1` [Compound 3712] ({CH2CO}-[4Pal]Y(Carboxymethyl)D[Phe(3-Me)][Phe(4-COOH)][Bip][Phe(4-COOH)][Orn][dL][Dab][Cha][Val(3-OH)]SC[Dab][Aun]-OH; thioether N-14), the IC50 turned out to be 129 nM.

In the case of `Cc1cccc(C[C@@H]2NC(=O)[C@H](CC(=O)O)NC(=O)[C@H](Cc3ccc(OCC(=O)O)cc3)NC(=O)[C@H](CCN)NC(=O)CSC[C@@H](C(=O)N[C@@H](CCN)C(=O)NCCCCCCCCCCC(=O)O)NC(=O)[C@H](CO)NC(=O)[C@H](C(C)(C)O)NC(=O)[C@H](CC3CCCCC3)NC(=O)[C@H](Cc3c[nH]cn3)NC(=O)[C@@H](CC(C)C)NC(=O)[C@H](CCCN)NC(=O)[C@H](Cc3ccc(OCC(=O)O)cc3)NC(=O)[C@H](Cc3ccc(-c4ccccc4)cc3)NC(=O)[C@H](Cc3ccc(C(=O)O)cc3)NC2=O)c1` [Compound 3714] ({CH2CO}-[Dab]Y(Carboxymethyl)D[Phe(3-Me)][Phe(4-COOH)][Bip]Y(Carboxymethyl)[Orn][dL]H[Cha][Val(3-OH)]SC[Dab][Aun]-OH; thioether N-14), the IC50 is 12.4 nM.

In the case of `Cc1cccc(C[C@@H]2NC(=O)[C@H](CC(=O)O)NC(=O)[C@H](Cc3ccc(OCC(=O)O)cc3)NC(=O)[C@H](Cc3ccncc3)NC(=O)CSC[C@@H](C(=O)N[C@@H](CCN)C(=O)NCCCCCCCCCCC(=O)O)NC(=O)[C@H](CO)NC(=O)[C@H](C(C)(C)O)NC(=O)[C@H](CC3CCCCC3)NC(=O)[C@H](CCN)NC(=O)[C@@H](CC(C)C)NC(=O)[C@H](CCCN)NC(=O)[C@H](Cc3ccc(C(=O)O)cc3)NC(=O)[C@H](Cc3ccc(-c4ccccc4)cc3)NC(=O)[C@H](Cc3ccc(C(=O)O)cc3)NC2=O)c1` [Compound 3716] ({CH2CO}-[4Pal]Y(Carboxymethyl)D[Phe(3-Me)][Phe(4-COOH)][Bip][Phe(4-COOH)][Orn][dL][Dab][Cha][Val(3-OH)]SC[Dab][Aun]-OH; thioether N-14), the IC50 amounted to 165 nM.

As for `Cc1cccc(C[C@@H]2NC(=O)[C@H](CC(=O)O)NC(=O)[C@H](Cc3ccc(OCC(=O)O)cc3)NC(=O)[C@H](Cc3ccncc3)NC(=O)CSC[C@@H](C(=O)N[C@@H](CCN)C(=O)NCCCCCCCCCCC(=O)O)NC(=O)[C@H](CO)NC(=O)[C@H](C(C)(C)O)NC(=O)[C@H](CC3CCCCC3)NC(=O)[C@H](CCN)NC(=O)[C@@H](CC(C)C)NC(=O)[C@H](CCCN)NC(=O)[C@H](Cc3ccc(O)cc3)NC(=O)[C@H](Cc3ccc(-c4ccccc4)cc3)NC(=O)[C@H](Cc3ccc(C(N)=O)cc3)NC2=O)c1` [Compound 3717] ({CH2CO}-[4Pal]Y(Carboxymethyl)D[Phe(3-Me)][Phe(4-CONH2)][Bip]Y[Orn][dL][Dab][Cha][Val(3-OH)]SC[Dab][Aun]-OH; thioether N-14), the IC50 turned out to be 5 nM.

For `Cc1cccc(C[C@@H]2NC(=O)[C@H](CC(=O)O)NC(=O)[C@H](Cc3ccc(OCC(=O)O)cc3)NC(=O)[C@H](C(C)O)NC(=O)CSC[C@@H](C(=O)N[C@@H](CCN)C(=O)NCCCCCCCCCCC(=O)O)NC(=O)[C@H](CO)NC(=O)[C@H](C(C)(C)O)NC(=O)[C@H](CC3CCCCC3)NC(=O)[C@H](CCN)NC(=O)[C@@H](CC(C)C)NC(=O)[C@H](CCCN)NC(=O)[C@H](Cc3ccc(O)cc3)NC(=O)[C@H](Cc3ccc(-c4ccccc4)cc3)NC(=O)[C@H](Cc3ccc(C(N)=O)cc3)NC2=O)c1` (stereo partly drawn) [Compound 3718] ({CH2CO}-[Thr(3ξ)]Y(Carboxymethyl)D[Phe(3-Me)][Phe(4-CONH2)][Bip]Y[Orn][dL][Dab][Cha][Val(3-OH)]SC[Dab][Aun]-OH; thioether N-14), the IC50 turned out to be 8.8 nM.

`Cc1cccc(C[C@@H]2NC(=O)[C@H](CC(=O)O)NC(=O)[C@H](Cc3ccc(OCC(=O)O)cc3)NC(=O)[C@H](Cc3ccco3)NC(=O)CSC[C@@H](C(=O)N[C@@H](CCN)C(=O)NCCCCCCCCCCC(=O)O)NC(=O)[C@H](CO)NC(=O)[C@H](C(C)(C)O)NC(=O)[C@H](CC3CCCCC3)NC(=O)[C@H](CCN)NC(=O)[C@@H](CC(C)C)NC(=O)[C@H](CCCN)NC(=O)[C@H](Cc3ccc(O)cc3)NC(=O)[C@H](Cc3ccc(-c4ccccc4)cc3)NC(=O)[C@H](Cc3ccc(C(N)=O)cc3)NC2=O)c1` [Compound 3719] ({CH2CO}-[Ala(2-furyl)]Y(Carboxymethyl)D[Phe(3-Me)][Phe(4-CONH2)][Bip]Y[Orn][dL][Dab][Cha][Val(3-OH)]SC[Dab][Aun]-OH; thioether N-14): the IC50 is 29.8 nM.

With `Cc1cccc(C[C@@H]2NC(=O)[C@H](CC(=O)O)NC(=O)[C@H](Cc3ccc(OCC(=O)O)cc3)NC(=O)[C@H](C(C)O)NC(=O)CSC[C@@H](C(=O)N[C@@H](CCN)C(=O)NCCCCCCCCCCC(=O)O)NC(=O)[C@H](CO)NC(=O)[C@H](C(C)(C)O)NC(=O)[C@H](CC3CCCCC3)NC(=O)[C@H](Cc3cnc[nH]3)NC(=O)[C@@H](CC(C)C)NC(=O)[C@H](CCCN)NC(=O)[C@H](Cc3ccc(OCC(=O)O)cc3)NC(=O)[C@H](Cc3ccc(-c4ccccc4)cc3)NC(=O)[C@H](Cc3ccc(OCC(=O)O)cc3)NC2=O)c1` (stereo partly drawn) [Compound 3720] ({CH2CO}-[Thr(3ξ)]Y(Carboxymethyl)D[Phe(3-Me)]Y(Carboxymethyl)[Bip]Y(Carboxymethyl)[Orn][dL]H[Cha][Val(3-OH)]SC[Dab][Aun]-OH; thioether N-14), the IC50 was found to be 11.7 nM.

For `Cc1cccc(C[C@@H]2NC(=O)[C@H](CC(=O)O)NC(=O)[C@H](Cc3ccc(OCC(=O)O)cc3)NC(=O)[C@H](Cc3ccncc3)NC(=O)CSC[C@@H](C(=O)N[C@@H](CCN)C(=O)NCCCCCCCCCCC(=O)O)NC(=O)[C@H](CO)NC(=O)[C@H](C(C)(C)O)NC(=O)[C@H](CC3CCCCC3)NC(=O)[C@H](Cc3cnc[nH]3)NC(=O)[C@@H](CC(C)C)NC(=O)[C@H](CCCN)NC(=O)[C@H](Cc3ccc(OCC(=O)O)cc3)NC(=O)[C@H](Cc3ccc(-c4ccccc4)cc3)NC(=O)[C@H](Cc3ccc(OCC(=O)O)cc3)NC2=O)c1` [Compound 3721] ({CH2CO}-[4Pal]Y(Carboxymethyl)D[Phe(3-Me)]Y(Carboxymethyl)[Bip]Y(Carboxymethyl)[Orn][dL]H[Cha][Val(3-OH)]SC[Dab][Aun]-OH; thioether N-14), the IC50 is 18.4 nM.

For the compound `Cc1cccc(C[C@@H]2NC(=O)[C@H](CC(=O)O)NC(=O)[C@H](Cc3ccc(OCC(=O)O)cc3)NC(=O)[C@H](Cc3ccncc3)NC(=O)CSC[C@@H](C(=O)N[C@@H](CO)C(=O)NCCCCCCCCCCC(=O)O)NC(=O)[C@H](CO)NC(=O)[C@H](C(C)(C)O)NC(=O)[C@H](CC3CCCCC3)NC(=O)[C@H](Cc3cnc[nH]3)NC(=O)[C@@H](CC(C)C)NC(=O)[C@H](CCCN)NC(=O)[C@H](Cc3ccc(OCC(=O)O)cc3)NC(=O)[C@H](Cc3ccc(-c4ccccc4)cc3)NC(=O)[C@H](Cc3ccc(OCC(=O)O)cc3)NC2=O)c1` [Compound 3722] ({CH2CO}-[4Pal]Y(Carboxymethyl)D[Phe(3-Me)]Y(Carboxymethyl)[Bip]Y(Carboxymethyl)[Orn][dL]H[Cha][Val(3-OH)]SCS[Aun]-OH; thioether N-14), the IC50 was 41.2 nM.

Regarding `Cc1cccc(C[C@@H]2NC(=O)[C@H](CC(=O)O)NC(=O)[C@H](Cc3ccc(OCC(=O)O)cc3)NC(=O)[C@H](C(C)O)NC(=O)CSC[C@@H](C(=O)N[C@@H](CO)C(=O)NCCCCCCCCCCC(=O)O)NC(=O)[C@H](CO)NC(=O)[C@H](C(C)(C)O)NC(=O)[C@H](CC3CCCCC3)NC(=O)[C@H](Cc3cnc[nH]3)NC(=O)[C@@H](CC(C)C)NC(=O)[C@H](CCCN)NC(=O)[C@H](Cc3ccc(OCC(=O)O)cc3)NC(=O)[C@H](Cc3ccc(-c4ccccc4)cc3)NC(=O)[C@H](Cc3ccc(OCC(=O)O)cc3)NC2=O)c1` (stereo partly drawn) [Compound 3723] ({CH2CO}-[Thr(3ξ)]Y(Carboxymethyl)D[Phe(3-Me)]Y(Carboxymethyl)[Bip]Y(Carboxymethyl)[Orn][dL]H[Cha][Val(3-OH)]SCS[Aun]-OH; thioether N-14), the IC50 was 84.1 nM.

As for `Cc1cccc(C[C@@H]2NC(=O)[C@H](CC(=O)O)NC(=O)[C@H](Cc3ccc(OCC(=O)O)cc3)NC(=O)[C@H](CCN)NC(=O)CSC[C@@H](C(=O)N[C@@H](CO)C(=O)NCCCCCCCCCCC(=O)O)NC(=O)[C@H](CO)NC(=O)[C@H](C(C)(C)O)NC(=O)[C@H](CC3CCCCC3)NC(=O)[C@H](Cc3cnc[nH]3)NC(=O)[C@@H](CC(C)C)NC(=O)[C@H](CCCN)NC(=O)[C@H](Cc3ccc(OCC(=O)O)cc3)NC(=O)[C@H](Cc3ccc(-c4ccccc4)cc3)NC(=O)[C@H](Cc3ccc(OCC(=O)O)cc3)NC2=O)c1` [Compound 3724] ({CH2CO}-[Dab]Y(Carboxymethyl)D[Phe(3-Me)]Y(Carboxymethyl)[Bip]Y(Carboxymethyl)[Orn][dL]H[Cha][Val(3-OH)]SCS[Aun]-OH; thioether N-14), the IC50 was 73.9 nM.

Regarding `Cc1cccc(C[C@@H]2NC(=O)[C@H](CC(=O)O)NC(=O)[C@H](Cc3ccc(OCC(=O)O)cc3)NC(=O)[C@H](CCN)NC(=O)CSC[C@@H](C(=O)N[C@@H](CO)C(=O)NCCCCCCCCCCC(=O)O)NC(=O)[C@H](C(C)O)NC(=O)[C@H](C(C)(C)O)NC(=O)[C@H](CC3CCCCC3)NC(=O)[C@H](CCN)NC(=O)[C@@H](CC(C)C)NC(=O)[C@H](CCCN)NC(=O)[C@H](Cc3ccc(O)cc3)NC(=O)[C@H](Cc3ccc(-c4ccccc4)cc3)NC(=O)[C@H](Cc3ccc(C(N)=O)cc3)NC2=O)c1` (stereo partly drawn) [Compound 3725] ({CH2CO}-[Dab]Y(Carboxymethyl)D[Phe(3-Me)][Phe(4-CONH2)][Bip]Y[Orn][dL][Dab][Cha][Val(3-OH)][Thr(3ξ)]CS[Aun]-OH; thioether N-14), the IC50 was 30.5 nM.

One may read the IC50 as the concentration that inhibits the measured activity by half.
